Data from patent US20240358842A1, “PROTEIN STABILIZING COMPOUNDS CONTAINING USP7 LIGANDS” (Stablix, Inc., priority 2021, published 2024).
Where two headings read alike, the source gives them in different places.

Key:
USP7 CD + UBL 1-5 = molecular target: T1, USP7 CD + UBL 1-5 (Homo sapiens, UniProt Q93009); experiment: Surface plasmon resonance assay (SPR); type: binding
T1 construct: USP7 CD +
Experimental: The surface plasmon resonance experiments were performed using a Cytiva (formerly GE Healthcare) Biacore 8K equipped with a Series S Sensor Chip SA. The ligands were immobilized via a biotin-modified biotin acceptor peptide. USP7 Ligands were diluted in running buffer (HBS-P+2% DMSO; 10 mM HEPES, pH 7.4, 150 mM NaCl, 1 mM DTT, 0.05% P20, 2% DMSO) to 100 μg/mL and injected at […] until a density between 500-10,000 RU was reached on flow-cell two of each channel, and flow cell one was left blank to serve as a reference surface. Both surfaces were washed until a stable baseline was achieved then 30 startup cycles to condition the surface. To collect kinetic and steady-state binding data, the small molecule analytes were prepared in three-fold dilution series in HBS-P+2% DMSO running buffer. Analytes were injected over both flow cells at a flow rate of […] at 25° C. The complex was allowed to associate for 60 seconds and dissociate for 300 seconds. Data were collected at 10 Hz. The data were fit to a simple 1:1 interaction model global data analysis within Cytiva Biacore Insight Evaluation Software.

USP7 = USP7 (Homo sapiens, UniProt Q93009); experiment: Ub-Rho cleavage assay; type: biochemical; conditions: Ub-Rho substrate, recombinant USP7; read-out: Ub (Rho) USP7.1 (IC50)
Experimental: All fluorescence measurements were performed on a Molecular Devices FlexStation3 with excitation at 480 nm and emission 540 nm, PMT Gain: Medium, Flash Number: 10. […] Assay buffer for all measurements was 50 mM HEPES, 100 mM NaCl, 0.5 mM EDTA, 1 mM TCEP, 0.1 mg/ml BSA, 0.01% Tween-20, pH 7.8. […] Serial dilutions were made with a Mosquito HTS (SPT Labtech) nanoliter liquid handler. 200 nL of each compound in duplicate or DMSO control were transferred to the assay plate. The first two columns served as positive controls. 9.8 μl per well of USP7 working solution was added to the assay plate. Compound+Protein was incubated for 25 min at 25° C. 10 uL of Ub-Rho substrate was added per well and incubated for an additional 15 min at 25° C. Fluorescence was then measured. Percent response relative to DMSO controls was calculated in GraphPad or Scinamic, and the data was fitted to a non-linear regression to determine IC50 values.

[1] = steady-state KD, read-out: SPR USP7 CD + UBL 1-5 (KD_ss)
[2] = kinetic KD, read-out: SPR USP7 CD + UBL 1-5 (KD_kinetic)

Chain of USP7 (Q93009 whole entry): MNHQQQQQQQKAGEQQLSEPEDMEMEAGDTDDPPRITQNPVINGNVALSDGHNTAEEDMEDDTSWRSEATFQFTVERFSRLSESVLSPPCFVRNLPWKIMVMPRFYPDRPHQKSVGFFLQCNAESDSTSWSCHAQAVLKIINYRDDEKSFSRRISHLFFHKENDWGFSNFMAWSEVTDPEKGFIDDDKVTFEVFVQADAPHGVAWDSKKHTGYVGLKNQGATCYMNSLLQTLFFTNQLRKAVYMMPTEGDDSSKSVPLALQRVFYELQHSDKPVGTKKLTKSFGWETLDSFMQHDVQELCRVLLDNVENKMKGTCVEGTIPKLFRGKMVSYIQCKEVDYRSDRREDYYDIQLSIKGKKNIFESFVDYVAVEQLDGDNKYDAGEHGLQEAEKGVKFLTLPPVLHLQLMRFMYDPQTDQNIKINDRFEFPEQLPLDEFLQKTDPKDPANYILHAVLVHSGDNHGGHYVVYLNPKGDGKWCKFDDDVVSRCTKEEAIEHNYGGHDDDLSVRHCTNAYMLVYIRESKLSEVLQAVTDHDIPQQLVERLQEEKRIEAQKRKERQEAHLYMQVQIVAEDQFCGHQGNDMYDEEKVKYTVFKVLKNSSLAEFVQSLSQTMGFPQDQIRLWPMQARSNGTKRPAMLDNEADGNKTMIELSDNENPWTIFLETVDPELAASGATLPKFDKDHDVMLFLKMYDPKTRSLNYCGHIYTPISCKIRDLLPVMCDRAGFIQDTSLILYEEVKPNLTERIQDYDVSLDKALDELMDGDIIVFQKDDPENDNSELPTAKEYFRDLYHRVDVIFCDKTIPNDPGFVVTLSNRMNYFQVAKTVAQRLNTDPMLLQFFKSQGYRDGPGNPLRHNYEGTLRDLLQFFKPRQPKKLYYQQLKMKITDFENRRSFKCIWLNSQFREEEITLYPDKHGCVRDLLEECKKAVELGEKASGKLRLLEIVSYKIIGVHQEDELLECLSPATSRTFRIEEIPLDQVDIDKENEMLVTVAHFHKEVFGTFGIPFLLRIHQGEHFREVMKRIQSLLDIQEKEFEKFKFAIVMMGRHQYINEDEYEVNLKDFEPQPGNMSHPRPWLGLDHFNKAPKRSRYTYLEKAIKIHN
T1 sequence (Q93009 208-1102 limits assumed): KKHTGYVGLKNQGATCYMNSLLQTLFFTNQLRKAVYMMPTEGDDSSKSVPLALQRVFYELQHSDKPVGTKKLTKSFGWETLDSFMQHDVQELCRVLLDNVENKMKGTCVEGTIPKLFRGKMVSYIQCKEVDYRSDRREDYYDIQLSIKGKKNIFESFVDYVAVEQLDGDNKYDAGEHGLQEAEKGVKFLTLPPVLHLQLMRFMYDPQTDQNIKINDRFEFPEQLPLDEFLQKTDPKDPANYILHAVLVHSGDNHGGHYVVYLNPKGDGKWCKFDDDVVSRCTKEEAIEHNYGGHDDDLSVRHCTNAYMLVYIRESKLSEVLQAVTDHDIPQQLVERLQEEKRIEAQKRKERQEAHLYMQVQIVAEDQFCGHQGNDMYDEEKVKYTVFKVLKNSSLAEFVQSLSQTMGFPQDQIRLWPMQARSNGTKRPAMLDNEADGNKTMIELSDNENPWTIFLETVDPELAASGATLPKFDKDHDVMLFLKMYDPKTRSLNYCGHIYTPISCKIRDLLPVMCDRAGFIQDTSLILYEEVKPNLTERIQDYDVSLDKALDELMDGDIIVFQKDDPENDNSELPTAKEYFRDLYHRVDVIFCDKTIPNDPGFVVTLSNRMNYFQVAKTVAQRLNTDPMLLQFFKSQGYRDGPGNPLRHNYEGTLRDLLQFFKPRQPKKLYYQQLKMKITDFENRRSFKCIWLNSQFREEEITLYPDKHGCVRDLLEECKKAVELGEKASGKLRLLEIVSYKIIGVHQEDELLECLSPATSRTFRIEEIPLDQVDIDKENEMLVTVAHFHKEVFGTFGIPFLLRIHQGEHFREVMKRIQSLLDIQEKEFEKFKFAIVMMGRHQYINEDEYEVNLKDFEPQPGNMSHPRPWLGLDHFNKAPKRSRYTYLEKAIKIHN

For CN1CCCn2nc(C(=O)Nc3nc4ccc(S(=O)(=O)NC5CCNC5)cc4s3)cc2C1 (centres unmarked) [U127], the Kd (USP7 CD + UBL 1-5; [1]) was 1 to 100 µM and the IC50 (USP7) was > 100 µM.

In the case of NC1CCn2nc(C(=O)Nc3nc4ccc(NS(=O)(=O)c5cccs5)cc4s3)cc2C1 (centres unmarked) [U112], the Kd (USP7 CD + UBL 1-5; [1]) is reported as 1 to 100 µM and the IC50 (USP7) is reported as > 100 µM.

C=CS(=O)(=O)Nc1ccccc1-c1ccc(C(=O)N2CCC(O)(Cn3cnc4c(cnn4C)c3=O)CC2)cc1 [U27] gave a Kd (USP7 CD + UBL 1-5; [1]) of 1 to 100 µM.

For CCc1c(-c2ccc3[nH]ncc3c2)c(C#N)nc(CNC(=O)OC(C)(C)C)c1-c1ccc(O)cc1 [U86], the Kd (USP7 CD + UBL 1-5; [1]) was 1 to 100 µM and the IC50 (USP7) was 1 to 100 µM.

CN1CCCn2nc(C(=O)Nc3nc4ccc(NS(=O)(=O)c5ccncc5)cc4s3)cc2C1 [U109] was tested, and the Kd (USP7 CD + UBL 1-5; [1]) was > 100 µM and the IC50 (USP7) was > 100 µM.

C[C@H](CC(=O)N1CCC(O)(Cn2cnc3c(C#CCO)csc3c2=O)CC1)c1ccccc1 [U1] was tested, and the Kd (USP7 CD + UBL 1-5; [2]) was < 1 µM, the Kd (USP7 CD + UBL 1-5; [1]) was < 1 µM and the IC50 (USP7) was < 1 µM.

Work on CCc1c(-c2ccc(C(=O)NC)nc2)ccc(CNCCNC(=O)OC(C)(C)C)c1-c1ccc(O)cc1 [U43] yielded a Kd (USP7 CD + UBL 1-5; [1]) of 1 to 100 µM and an IC50 (USP7) of 1 to 100 µM.

CCc1c(-c2ccc(C(=O)NCCCNC(=O)CCOCCOCCOCCOCCNC(=O)OC(C)(C)C)nc2)cnc(N)c1-c1ccc(O)cc1 [U58] showed a Kd (USP7 CD + UBL 1-5; [1]) of 1 to 100 µM and an IC50 (USP7) of 1 to 100 µM.

In the case of CC(=O)N1CCCn2nc(C(=O)Nc3nc4ccc(NS(=O)(=O)c5cccs5)cc4s3)cc2C1 [U96], the Kd (USP7 CD + UBL 1-5; [1]) is reported as 1 to 100 µM and the IC50 (USP7) is reported as > 100 µM.

In the case of CN1CCn2cnc(C(=O)Nc3nc4ccc(NS(=O)(=O)c5cccs5)cc4s3)c2C1 [U97], the Kd (USP7 CD + UBL 1-5; [1]) is reported as 1 to 100 µM and the IC50 (USP7) is reported as > 100 µM.

In the case of C[C@H](CC(=O)N1CCC(O)(Cn2cnc3cc(NCCN(C)CCCNC(=O)OC(C)(C)C)ccc3c2=O)CC1)c1ccccc1 [U6], the Kd (USP7 CD + UBL 1-5; [2]) is reported as < 1 µM, the Kd (USP7 CD + UBL 1-5; [1]) is reported as < 1 µM and the IC50 (USP7) is reported as < 1 µM.

CN1CCCn2nc(C(=O)Nc3nc4ccc(NS(=O)(=O)c5ccccn5)cc4s3)cc2C1 [U104] was tested, and the Kd (USP7 CD + UBL 1-5; [1]) was 1 to 100 µM and the IC50 (USP7) was > 100 µM.

With CCc1c(-c2ccc(C(=O)NCCCNC(=O)CCCCCCCCNC(=O)OC(C)(C)C)nc2)cnc(N)c1-c1ccc(O)cc1 [U54] the Kd (USP7 CD + UBL 1-5; [1]) was 1 to 100 µM and the IC50 (USP7) was > 100 µM.

Work on CCc1c(-c2ccc3n[nH]cc3c2)cnc(CNC(=O)OC(C)C)c1-c1ccc(O)cc1 [U76] yielded a Kd (USP7 CD + UBL 1-5; [1]) of 1 to 100 µM and an IC50 (USP7) of 1 to 100 µM.

With CCc1c(-c2ccc3[nH]ncc3c2)cnc(CN)c1-c1ccc(O)cc1 [U63] the Kd (USP7 CD + UBL 1-5; [1]) was 1 to 100 µM and the IC50 (USP7) was 1 to 100 µM.

For CCc1c(-c2ccc(C(=O)NCCCNC(=O)CCCCCCNC(=O)OC(C)(C)C)nc2)cnc(N)c1-c1ccc(O)cc1 [U51], the Kd (USP7 CD + UBL 1-5; [1]) was 1 to 100 µM and the IC50 (USP7) was > 100 µM.

In the case of Cc1cc(Cl)cc(-c2ccnc3cc(CN4C(=O)CCC4=O)sc23)c1OC1CCN(CCCCCCCNC(=O)OC(C)(C)C)CC1 [U30], the Kd (USP7 CD + UBL 1-5; [2]) is reported as < 1 µM, the Kd (USP7 CD + UBL 1-5; [1]) is reported as < 1 µM and the IC50 (USP7) is reported as < 1 µM.

With CCc1c(-c2ccc(C(=O)NCCCNC(=O)CCCCNC(=O)OC(C)(C)C)nc2)cnc(N)c1-c1ccc(O)cc1 [U45] the Kd (USP7 CD + UBL 1-5; [1]) was 1 to 100 µM and the IC50 (USP7) was 1 to 100 µM.

For NCc1cc(Nc2nc3ccc(NS(=O)(=O)c4cn5c(n4)CCC5)cc3s2)ncn1 [U100], the Kd (USP7 CD + UBL 1-5; [1]) was 1 to 100 µM and the IC50 (USP7) was > 100 µM.

With C#CCCN1CCCn2nc(C(=O)Nc3nc4ccc(NS(=O)(=O)c5cccs5)cc4s3)cc2C1 [U119] the Kd (USP7 CD + UBL 1-5; [1]) was 1 to 100 µM and the IC50 (USP7) was > 100 µM.

For C[C@H](CC(=O)N1CCC(O)(Cn2cnc3cc(NC(=O)CCN4CCN(CCN=[N+]=[N-])CC4)ccc3c2=O)CC1)c1ccccc1 [U46], the Kd (USP7 CD + UBL 1-5; [1]) was < 1 µM and the IC50 (USP7) was < 1 µM.

With CN1CCCn2nc(C(=O)Nc3nc4ccc(NS(=O)(=O)C5CCNC5)cc4s3)cc2C1 (centres unmarked) [U128] the Kd (USP7 CD + UBL 1-5; [1]) was 1 to 100 µM and the IC50 (USP7) was > 100 µM.

In the case of CCc1c(-c2ccc3[nH]ncc3c2)cnc(N)c1-c1ccc(O)cc1 [U8], the Kd (USP7 CD + UBL 1-5; [2]) is reported as 1 to 100 µM, the Kd (USP7 CD + UBL 1-5; [1]) is reported as 1 to 100 µM and the IC50 (USP7) is reported as 1 to 100 µM.

Molecule C[C@H](CC(=O)N1CCC(O)(CN2C=NC3C(C#CCOCCNC(=O)OC(C)(C)C)=CSC3C2=O)CC1)c1ccccc1 (some centres unmarked) [U20] has a Kd (USP7 CD + UBL 1-5; [1]) of 1 to 100 µM and an IC50 (USP7) of 1 to 100 µM.

In the case of Cc1nocc1S(=O)(=O)Nc1ccc2nc(NC(=O)C3CCN(C)CC3)sc2c1 [U90], the Kd (USP7 CD + UBL 1-5; [1]) is reported as 1 to 100 µM and the IC50 (USP7) is reported as > 100 µM.

Molecule CCc1c(-c2ccc3c(cnn3CCN)c2)cnc(CNC(=O)OC(C)(C)C)c1-c1ccc(O)cc1 [U82] has a Kd (USP7 CD + UBL 1-5; [1]) of 1 to 100 µM and an IC50 (USP7) of 1 to 100 µM.

For C[C@H](CC(=O)N1CCC(O)(Cn2cnc3cc(NCCN4CCN(CCCNC(=O)OC(C)(C)C)CC4)ccc3c2=O)CC1)c1ccccc1 [U35], the Kd (USP7 CD + UBL 1-5; [1]) was < 1 µM and the IC50 (USP7) was < 1 µM.

With Cn1nc2c(=O)n(CC3(O)CCN(C(=O)C[C@H](c4ccccc4)C(F)(F)F)CC3)cnc2c1Br [U38] the Kd (USP7 CD + UBL 1-5; [1]) was 1 to 100 µM and the IC50 (USP7) was 1 to 100 µM.
